Reference: patent US7314956B2, “Multifunctional carrier for the delivery of a pharmacological agent or genetic material into a cell” (Vaxim, Inc., priority 2001, dated 2008)
Read-outs that look alike come from different tables or passages of the source.

Legend:
[1] = tested on: rabbit anti peptide T antiserum; details: compared with the other fractions of the same adduct, FIG. 14
Protocol: HPLC fractions of succinic acid-(Glu)n conjugated to peptide T were analyzed by ELISA (i.e., enzyme linked immunosorbent assay). HPLC fractions of conjugated peptide T were diluted (1:10) in coating buffer [1.59 g sodium carbonate (Na2CO3), 2.93 g sodium bicarbonate (NaHCO3) Dissolve in 900 ml H2O, adjust pH to 9.6 with HCl and make up to 1 L]. Control net peptide T was dissolved in coating buffer with a concentration of 5 μg/ml. 100 μl of each of two peptide T preparations was added to each well of a 96-well microtiter plate (Nunc). The plate was covered with a plate sealer and incubated at 4° C. over night. Following 3 washes with PBS-Tween [phosphate buffer saline: 8.0 g sodium chloride (NaCl), 0.2 g monobasic potassium phosphate (KH2PO4), 1.15 g dibasic sodium phosphate (Na2HPO4), 0.2 g potassium chloride (KCl), Dissolve in 900 ml H2O, adjust pH to 7.4 with NaOH or HCl and make up to 1 L, PBS+0.5 ml Tween 20 per liter]. 100 μl of diluted rabbit anti peptide T antiserum (1:250, in assay diluent, 0.1% BSA and 0.1% sodium azide (NaN3) in PBS) was added to each well. The plate was sealed and incubated for 1 hour at room temperature. Following 5 washes, each well was added with 100 μl of diluted goat anti rabbit IgG alkaline phosphatase conjugate (KPL, 1:1000 dilution in assay diluent). The plate was sealed and incubated for 30 min. […] Optical density (OD) was then read at 405 nm.

Balb/c mice = details: i.p. 0.5 mg per immunization, day 0, 8 and 21, Freund's adjuvant, antiserum 1:100, FIG. 15
Protocol: Balb/c mice were immunized intraperitoneally with succinic acid-(glu)n-Peptide T at 0.5 mg per immunization and per animal. The antigen complex was administered with complete Freund's adjuvant (first injection) and with incomplete Freund's adjuvant for booster injections. Mice were immunized 3 times at day 0, day 8 and day 21. Mice were bled via tail vein and 15 μl of blood collected by a capillary tube was transferred into 135 μl PBS in a 12×75 tissue culture tube. Diluted mouse sera were collected after centrifugation for 10 min.
A polystyrene 96-well plate (Nunc) was coated with free peptide T at 10 μg/ml in coating (pH 9.6) overnight at 4° C. The plate was washed 3 times with wash buffer. Afterwards, 100 μl of diluted (1:100 in assay diluent) mouse antiserum from each mouse was then added to each well (each serum sample was assayed in duplicate) and incubated for 2 hours at room temperature. The plates were then washed 5 times with wash buffer. Goat anti-mouse IgG conjugated to alkaline phosphate (KPL) was diluted 1:1000 in PBS with 1% bovine serum albumin, added to the wells, and incubated for 30 min at room temperature followed by six washes with wash buffer. Substrate solution (p-Nitrophenyl phosphate, 2 mg/ml in substrate buffer) was then added. Absorbance was then measured using a microplate reader at 405 nm.

[2] = tested on: R5 and dual-tropic (R5/X4) HIV-1 strains; details: monocyte-derived macrophages (MDMs), microglia, primary CD4(+) T cells; cited from earlier work
CD4 receptor = CD4 receptor (Homo sapiens, UniProt P01730); details: in vitro; cited from earlier work
[3] = in vitro; cited from earlier work

Substance | immunoreactivity (optical density at 405 nm) ([1]; HPLC Fraction 2 (highest retention time)) | immune response (anti-peptide T antibodies, ELISA OD at 405 nm) (Balb/c mice) | replication of HIV-1 strains [2] | binding of isolated gp120 and HIV-1 to the CD4 receptor (CD4 receptor) | chemotactic activity [3] | immunoreactivity (optical density at 405 nm) ([1]; HPLC Fraction 3 (highest retention time))
Succinic Acid-(Glu)2-(Glu)4-(Peptide T)8 [Shell 2] | highest immunoreactivity | some mice show greater immune response | – | – | – | –
D-Ala-Ser-Thr-Thr-Thr-Asn-Tyr-Thr-NH2 [Peptide T] | – | – | inhibits replication | inhibition of the binding | chemotactic activity | –
Succinic Acid-(Glu)2-(Glu)4-(Glu)8-(Peptide T)16 [Shell 3] | – | some mice show greater immune response | – | – | – | highest immunoreactivity
